Patent publication US9085587B2, “Inhibitors of hepatitis C virus” (priority 2010, dated 2015)
Read-outs that look alike come from different tables or passages of the source.

What was measured:
Type in all cases: cell-based
HCV NS5B S365A mutant = molecular target: T1, HCV NS5B S365A mutant (Hepatitis C virus genotype 1b, UniProt Q9WMX2, S2784A); test: Activity against HCV NS5B S365A mutant; conditions: for EC50: read-out: Inhibiton of HCV NS5B S365A mutant
T1 construct: HCV NS5B C316Y or S365A mutant as indicated; expressed in transfected cells
Procedure: (§1) The biological activity against HCV 1b, 1a, or 2a is indicated as being *, **, ***, or ****, which corresponds to EC50 ranges of EC50>1000 nM, 100 nM<EC50≦1000 nM, 10 nM<EC50≦100 nM, or EC50≦10 nM, respectively. The biological activity against HCV NS5B C316Y or S365A mutant is indicated as being †, ††, or \\\, which corresponds to EC50 ranges of EC50>1000 nM, 200 nM<EC50≦1000 nM, […], respectively.

HCV NS5B C316Y mutant = molecular target: T2, HCV NS5B C316Y mutant (Hepatitis C virus genotype 1b, UniProt Q9WMX2, C2735Y); test: Activity against HCV NS5B C316Y mutant; conditions: for EC50: read-out: Inhibiton of HCV NS5B C316Y mutant
T2 construct: HCV NS5B C316Y or S365A mutant as indicated; expressed in transfected cells
Procedure: as §1

[1] = system: HCV 1b replication (bicistronic genotype 1b replicon in Huh 7 cells); test: HCV 1b replicon assay (1b_Huh-Luc/Neo-ET cell line, luciferase readout); conditions: Hepatitis C virus, Huh-7
Procedure: Biological activity of the compounds of the invention was determined using an HCV replicon assay. The 1b_Huh-Luc/Neo-ET cell line persistently expressing a bicistronic genotype 1b replicon in Huh 7 cells was obtained from ReBLikon GMBH. This cell line was used to test compound inhibition using luciferase enzyme activity readout as a measurement of compound inhibition of replicon levels.
On Day 1 (the day after plating), each compound was added in triplicate to the cells. Plates were incubated for 72 hours prior to running the luciferase assay. Enzyme activity was measured using a Bright-Glo Kit (cat. number E2620) manufactured by Promega Corporation. The following equation was used to generate a percent control value for each compound. % Control=(Average Compound Value/Average Control)*100
The EC50 value was determined using GraphPad Prism and the following equation: Y=Bottom+(Top-Bottom)/(1+10^((Log IC50−X)*HillSlope))
EC50 values of compounds were repeated several times in the replicon assay.

HCV 2a = HCV 2a replicon assay (similar to the 1b replicon assay); conditions: Hepatitis C virus; cell marked (HCV genotype 2a replicon); read-out: Inhibition of HCV genotype 2a replicon
Procedure: (§2) Compounds of the invention can inhibit multiple genotypes of HCV selected but not limited to 1a, 1b, 2a, 3a, and 4a. The EC50s are measured in the corresponding replicon assays that are similar to HCV 1b replicon assay as described above.
as §1

HCV 1a = HCV 1a replicon assay (similar to the 1b replicon assay); conditions: Hepatitis C virus; cell marked (HCV genotype 1a replicon); read-out: Inhibition of HCV genotype 1a replicon
Procedure: as §2, §1

[2] = numeric EC50, genotype 1b replicon, read-out: Inhibition of HCV genotype 1b replicon (EC50)
[3] = 1b_Huh-Luc/Neo-ET cell line, 72 hours, luciferase readout, read-out: EC50, concentration effective to produce a half-maximal inhibition of HCV 1b replication
[4] = class symbols, genotype 1b replicon, read-out: Inhibition of HCV genotype 1b replicon

T1 sequence (Q9WMX2 2420-3010 S2784A): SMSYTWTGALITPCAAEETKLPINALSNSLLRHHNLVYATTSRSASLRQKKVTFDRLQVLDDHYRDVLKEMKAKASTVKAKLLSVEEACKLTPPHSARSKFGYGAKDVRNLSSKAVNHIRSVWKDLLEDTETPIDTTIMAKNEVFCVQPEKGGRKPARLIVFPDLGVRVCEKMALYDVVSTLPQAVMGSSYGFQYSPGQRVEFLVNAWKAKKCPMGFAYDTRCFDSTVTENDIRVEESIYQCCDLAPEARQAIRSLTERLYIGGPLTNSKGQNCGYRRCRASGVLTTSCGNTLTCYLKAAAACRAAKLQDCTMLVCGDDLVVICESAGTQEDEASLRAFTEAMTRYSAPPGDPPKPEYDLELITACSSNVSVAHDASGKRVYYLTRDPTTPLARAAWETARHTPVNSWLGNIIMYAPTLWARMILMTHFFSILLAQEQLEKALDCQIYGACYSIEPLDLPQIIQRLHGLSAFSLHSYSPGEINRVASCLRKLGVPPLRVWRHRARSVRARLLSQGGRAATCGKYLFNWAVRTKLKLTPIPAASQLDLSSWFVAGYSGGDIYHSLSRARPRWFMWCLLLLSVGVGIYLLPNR
T2 sequence (Q9WMX2 2420-3010 C2735Y): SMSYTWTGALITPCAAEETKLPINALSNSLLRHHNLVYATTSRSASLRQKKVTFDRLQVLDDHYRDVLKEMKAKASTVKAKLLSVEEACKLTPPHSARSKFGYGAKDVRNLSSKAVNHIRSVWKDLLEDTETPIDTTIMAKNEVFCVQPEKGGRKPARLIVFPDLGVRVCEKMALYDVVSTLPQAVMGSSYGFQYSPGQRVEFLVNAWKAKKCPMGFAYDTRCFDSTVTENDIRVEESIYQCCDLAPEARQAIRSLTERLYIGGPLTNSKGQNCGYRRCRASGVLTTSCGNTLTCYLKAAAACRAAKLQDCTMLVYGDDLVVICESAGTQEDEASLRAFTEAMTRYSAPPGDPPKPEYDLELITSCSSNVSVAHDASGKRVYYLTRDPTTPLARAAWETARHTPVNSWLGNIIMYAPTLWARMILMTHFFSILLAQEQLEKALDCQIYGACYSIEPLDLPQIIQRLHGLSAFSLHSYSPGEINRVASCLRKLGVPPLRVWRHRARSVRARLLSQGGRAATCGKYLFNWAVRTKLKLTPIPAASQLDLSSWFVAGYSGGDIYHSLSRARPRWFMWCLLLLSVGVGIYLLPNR

SMILES	EC50 [1, 3] [nM]	EC50 [1, 4] [nM]	further results
CNC(=O)c1c(-c2ccc(F)cc2)oc2cc3c(cc12)[C@H](C)N(C)C(=O)CN3S(C)(=O)=O (single isomer, unassigned) [Compound B179]			EC50 (HCV NS5B S365A mutant): 200 to 1000 nM
CC1OCCN(S(C)(=O)=O)c2cc3oc(-c4ccc(F)cc4)c(-c4ncc[nH]4)c3cc21 (stereo not drawn) [Compound B197]			EC50 (HCV NS5B S365A mutant): 200 to 1000 nM
CNC(=O)c1c(-c2ccc(F)cc2)oc2cc3c(cc12)[C@H](C)OCCN3S(C)(=O)=O [Compound B45]			Inhibiton of HCV NS5B C316Y mutant (HCV NS5B C316Y mutant): †††; EC50 [1, 2]: 3 nM; Inhibiton of HCV NS5B S365A mutant (HCV NS5B S365A mutant): †††
CS(=O)(=O)N1CCCCc2cc3c(C(N)=O)c(-c4ccc(F)cc4)oc3cc21 [Compound B13]			EC50 (HCV 2a): > 1000 nM
CNC(=O)c1c(-c2ccc(F)cc2)oc2cc3c(cc12)[C@H](C)OC(C)(C)CN3S(C)(=O)=O (single isomer, unassigned) [Compound B184]			EC50 (HCV NS5B C316Y mutant): > 1000 nM; EC50 (HCV NS5B S365A mutant): 200 to 1000 nM
CNC(=O)c1c(-c2ccc(Oc3ccc(F)cc3)cc2)oc2cc3c(cc12)[C@H](C)OC1(CC1)CN3S(C)(=O)=O (single isomer, unassigned) [Compound B187]			EC50 (HCV NS5B C316Y mutant): > 1000 nM; EC50 (HCV NS5B S365A mutant): > 1000 nM
CNC(=O)c1c(-c2ccc(F)cc2)oc2cc3c(cc12)/C=C\CCCN3S(C)(=O)=O [Compound B114]			EC50 (HCV 1a): 100 to 1000 nM
CNC(=O)c1c(-c2ccc(F)cc2)oc2cc3c(cc12)C(C)N(CCO)CCN3S(C)(=O)=O (stereo not drawn) [Compound B145]			EC50 (HCV NS5B S365A mutant): 200 to 1000 nM
C=C1CCCN(S(C)(=O)=O)c2cc3nc(-c4ccc(F)cc4)c(C(=O)NC)n3cc21 [Compound B61]			EC50 (HCV 2a): > 1000 nM
CS(=O)(=O)N1CCCCc2cc3c(C(=O)NCC#N)c(-c4ccc(F)cc4)oc3cc21 [Compound B43]			EC50 (HCV 2a): > 1000 nM
CNC(=O)c1c(-c2ccc(F)cc2)oc2cc3c(cc12)[C@@H](C)CCCN3S(C)(=O)=O [Compound B16]	10 to 100		EC50 [1, 2]: 45.7 nM
CC1c2cc3c(-c4ncc[nH]4)c(-c4ccc(F)cc4)oc3cc2N(S(C)(=O)=O)CCN1C (stereo not drawn) [Compound B171]			EC50 (HCV NS5B S365A mutant): 200 to 1000 nM
CNC(=O)c1c(-c2ccc(Oc3ccc(F)cc3)cc2)oc2cc3c(cc12)[C@H](C)O[C@H](COC(=O)CCC(=O)O)CN3S(C)(=O)=O [Compound B245]	≤ 10	< 10	
CNC(=O)c1c(-c2ccc(F)cc2)oc2cc3c(cc12)[C@H](C)O[C@H](COC(=O)[C@@H](N)C(C)C)CN3S(C)(=O)=O [Compound B248]	≤ 10	< 10	
CNC(=O)c1c(-c2ccc(F)cc2)oc2cc3c(cc12)C(=O)CCCN3S(C)(=O)=O [Compound B7]	10 to 100	10 to 100	
CS(=O)(=O)N1CCCCc2cc3c(C(=O)NC4CC4)c(-c4ccc(F)cc4)oc3cc21 [Compound B41]			EC50 (HCV 2a): > 1000 nM
CNC(=O)c1c(-c2ccc(F)cc2)oc2cc3c(cc12)C=CCCN3S(C)(=O)=O [Compound B12]			EC50 (HCV 2a): 100 to 1000 nM
CNC(=O)c1c(-c2ccc(F)cc2)oc2cc3c(cc12)[C@H](C)O[C@H](COP(=O)(O)O)CN3S(C)(=O)=O [Compound B255]	≤ 10	< 10	
CNC(=O)c1c(-c2ccc(Oc3ccc(F)cc3)cc2)oc2cc3c(cc12)[C@H](C)OC(C)(C)CN3S(C)(=O)=O (single isomer, unassigned) [Compound B176]			EC50 (HCV NS5B C316Y mutant): 200 to 1000 nM; EC50 (HCV NS5B S365A mutant): 200 to 1000 nM
CN/C(=N\OC)c1c(-c2ccc(F)cc2)oc2cc3c(cc12)[C@H](C)O[C@H](CS(C)(=O)=O)CN3S(C)(=O)=O [Compound B284]		100 to 1000	
CNC(=O)c1c(-c2ccc(F)cc2)nc2cc3c(cn12)C(C)=CCCN3S(C)(=O)=O [Compound B62]			EC50 (HCV 2a): > 1000 nM

SMILES	EC50 [1, 3] [nM]	EC50 [1, 4] [nM]	further results
CNC(=O)c1c(-c2ccc(F)cc2)oc2cc3c(cc12)[C@H](C)O[C@H](COC(=O)[C@@H](N)[C@@H](C)O)CN3S(C)(=O)=O [Compound B280]	≤ 10	< 10	
CNC(=O)c1c(-c2ccc(Oc3ccc(F)cc3)cc2)oc2cc3c(cc12)[C@H](C)O[C@H](COC)CN3S(C)(=O)=O [Compound B243]	≤ 10	< 10	
CNC(=O)c1c(-c2ccc(Oc3ccc(F)cc3)cc2)oc2cc3c(cc12)[C@H](C)O[C@H](COC(=O)CN)CN3S(C)(=O)=O [Compound B254]	≤ 10	< 10	
CONC(=O)c1c(-c2ccc(F)cc2)oc2cc3c(cc12)[C@H](C)O[C@H](CO)CN3S(C)(=O)=O [Compound B257]	≤ 10	< 10	
CONC(=O)c1c(-c2ccc(F)cc2)oc2cc3c(cc12)CCCCN3S(C)(=O)=O [Compound B18]	10 to 100	10 to 100	
CNC(=O)c1c(-c2ccc(F)cc2)oc2cc3c(cc12)[C@H](C)O[C@H](COC(=O)[C@H](N)C(C)C)CN3S(C)(=O)=O [Compound B282]	≤ 10	< 10	
CNC(=O)c1c(-c2ccc(F)cc2)oc2cc3c(cc12)[C@H](C)O[C@H](COC(=O)CCC(=O)O)CN3S(C)(=O)=O [Compound B262]	10 to 100	10 to 100	
CNC(=O)c1c(-c2ccc(F)cc2)oc2cc3c(cc12)[C@H](C)O[C@H](COCCOC)CN3S(C)(=O)=O [Compound B267]	≤ 10	< 10	
CNC(=O)c1c(-c2ccc(F)cc2)oc2cc3c(cc12)[C@H](C)OC1(CC1)CN3S(C)(=O)=O (single isomer, unassigned) [Compound B193]			EC50 (HCV NS5B C316Y mutant): 200 to 1000 nM; EC50 (HCV NS5B S365A mutant): 200 to 1000 nM
CNC(=O)c1c(-c2ccc(F)cc2)oc2cc3c(cc12)[C@H](C)CCCN3S(C)(=O)=O (single isomer, unassigned) [Compound B15]			Inhibiton of HCV NS5B C316Y mutant (HCV NS5B C316Y mutant): †††; EC50 [1, 2]: 5.5 nM; Inhibiton of HCV NS5B S365A mutant (HCV NS5B S365A mutant): †††
CNC(=O)c1c(-c2ccc(F)cc2F)oc2cc3c(cc12)C(C)CCCN3S(C)(=O)=O (stereo not drawn) [Compound B35]	≤ 10	< 10	
CN(C)C(=O)c1c(-c2ccc(F)cc2)oc2cc3c(cc12)CCCCN3S(C)(=O)=O [Compound B14]			EC50 (HCV 2a): > 1000 nM
CNC(=O)c1c(-c2ccc(F)cc2)oc2cc3c(cc12)[C@@H](C)OCCN3S(C)(=O)=O [Compound B44]			EC50 (HCV 2a): 100 to 1000 nM
C=C1CCCCN(S(C)(=O)=O)c2cc3oc(-c4ccc(F)cc4)c(C(=O)NC)c3cc21 [Compound B75]			EC50 (HCV 2a): 100 to 1000 nM
CNC(=O)c1c(-c2ccc(F)cc2)oc2cc3c(cc12)[C@H](C)O[C@H](COC(=O)[C@@H](C)N)CN3S(C)(=O)=O [Compound B273]	≤ 10	< 10	
CNC(=O)c1c(-c2ccc(F)cc2)oc2cc3c(cc12)[C@H](C)O[C@H](COC(=O)C(C)(C)C)CN3S(C)(=O)=O [Compound B261]	≤ 10	< 10	
CNC(=O)c1c(-c2ccc(F)cc2)oc2cc3c(cc12)[C@H](C)O[C@H](COC(=O)COCCOCCOC)CN3S(C)(=O)=O [Compound B256]	≤ 10	< 10	
CNC(=O)c1c(-c2ccccc2F)oc2cc3c(cc12)C(C)=CCCN3S(C)(=O)=O [Compound B32]	10 to 100	10 to 100	
CS(=O)(=O)N1CCCCc2cc3c(-c4ncc[nH]4)c(-c4ccc(F)cc4)oc3cc21 [Compound B67]			EC50 (HCV NS5B S365A mutant): 200 to 1000 nM
CN(C)CCNC(=O)c1c(-c2ccc(F)cc2)oc2cc3c(cc12)CCCCN3S(C)(=O)=O [Compound B42]			EC50 (HCV 2a): > 1000 nM
CNC(=O)c1c(-c2ccc(F)cc2)oc2cc3c(cc12)[C@H](C)O[C@H](COC[C@H]1COC(C)(C)O1)CN3S(C)(=O)=O [Compound B275]	≤ 10	< 10	
